Biological target: T1, hSGLT5 Asn96Ile (Homo sapiens, UniProt A0PJK1, N96I)
T1 construct: pUB83-hSGLT5-iso2 as well as the various SGLT5 mutants obtained were used to transduce HEK293T cells; expressed in transfected cells; host or cells: HEK293T, lentiviral transduction (pUB83)
T1 sequence (A0PJK1 1-596 N96I): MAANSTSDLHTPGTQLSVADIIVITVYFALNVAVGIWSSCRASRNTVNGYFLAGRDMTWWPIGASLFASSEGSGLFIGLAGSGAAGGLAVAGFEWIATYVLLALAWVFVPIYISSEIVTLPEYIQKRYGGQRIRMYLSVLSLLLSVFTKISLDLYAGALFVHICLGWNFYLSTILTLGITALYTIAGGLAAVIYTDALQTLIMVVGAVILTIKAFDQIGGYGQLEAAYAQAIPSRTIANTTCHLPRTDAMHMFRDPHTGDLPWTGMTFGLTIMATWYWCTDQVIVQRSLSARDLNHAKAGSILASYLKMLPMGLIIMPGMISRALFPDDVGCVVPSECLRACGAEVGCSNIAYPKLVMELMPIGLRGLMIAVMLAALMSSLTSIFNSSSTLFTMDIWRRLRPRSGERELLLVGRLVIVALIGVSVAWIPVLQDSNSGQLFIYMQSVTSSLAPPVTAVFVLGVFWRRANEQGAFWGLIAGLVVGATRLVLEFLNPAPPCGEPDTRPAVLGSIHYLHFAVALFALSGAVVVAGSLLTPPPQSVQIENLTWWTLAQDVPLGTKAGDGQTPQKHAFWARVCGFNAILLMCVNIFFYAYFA
Experiment: 1,5-AG uptake in HEK293T cells overexpressing SGLT5 variant Asn96Ile
Assay type: cell-based
Protocol: For a typical transporter experiment we proceeded as follows. […] To minimize cell loss during the various washing steps in the radioactive uptake experiments, the wells where the cells were seeded were previously coated with poly- D-lysine, which improved their adhesion to the plastic surface of the wells. For this, each well of the 24-well plates was treated with 200 µl of a 0.01% poly-L-lysine solution for 10 min, washed 3 times with 1 ml of sterilized water and left to dry for 2 h. Only then could the 24-well plates be seeded with the appropriate cell lines and cultured overnight at 37 °C in 5% CO2.
On day two, the radioactive uptake assay could be performed. The cell culture media was removed by aspiration and cells were incubated for 20 min at 37 °C and 5% CO2 with a basal medium (10 mM HEPES, pH 7.4, 1 mM CaCl2, 1 mM MgCl2, 2 mM KCl) containing 140 mM choline chloride to deplete intracellular Na^2+ ions. […]
Once the uptake medium was added to the cells, the plates were incubated at 37 °C in 5% CO2 during the required time. […] In each experiment, the transport activities were calculated after subtracting a “blank” value, corresponding to the radioactivity in the appropriate control cells (HEK293T cells that were stably or transiently transfected with one of the parent plasmids pEF6/MycHisA, pEF6HisB, pUB82 or pUB83 with no inserted cDNA) that were analyzed in parallel. […]

Question: `OC[C@H]1OC[C@H](O)[C@@H](O)[C@@H]1O` [1,5-AG, 1,5-anhydroglucitol] was tested. Which Vmax did it give?
Answer: 19.5 ± 3 pmol/min/10^5cells

Question: And the “reduction of transport efficiency compared to SGLT5” value?
Answer: sixfold
